Measurements: US6150385A, “1,3,4-thiadiazoles useful for the treatment of CMV infections” (Pharmacia & Upjohn Company, priority 1999, dated 2000)

Target: T1, HCMV polymerase (Human cytomegalovirus, UniProt P08546)
T1 construct: made in house; host or cells: SF-9 insect cells infected with recombinant baculovirus
Assay: HCMV polymerase assay (scintillation proximity assay)
Assay type: biochemical
Details: percentage of inhibition at 25 μM concentration in CMV polymerase assay
Outline: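 Baculovirus/SF-9-expressed HCMV polymerase in 5.4 mM HEPES pH 7.5, 11.7 mM KCl, 4.5 mM MgCl2, 0.36 mg/ml BSA, 90 nM 3H-dTTP, with or without 2 mM CHAPS. Started with 6 nM biotinylated poly(dA)-oligo(dT), 30 min at 25 or 37 °C, EDTA-stopped, read by streptavidin-SPA counting; % inhibition at 25 μM.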

T1 sequence (P08546 whole entry): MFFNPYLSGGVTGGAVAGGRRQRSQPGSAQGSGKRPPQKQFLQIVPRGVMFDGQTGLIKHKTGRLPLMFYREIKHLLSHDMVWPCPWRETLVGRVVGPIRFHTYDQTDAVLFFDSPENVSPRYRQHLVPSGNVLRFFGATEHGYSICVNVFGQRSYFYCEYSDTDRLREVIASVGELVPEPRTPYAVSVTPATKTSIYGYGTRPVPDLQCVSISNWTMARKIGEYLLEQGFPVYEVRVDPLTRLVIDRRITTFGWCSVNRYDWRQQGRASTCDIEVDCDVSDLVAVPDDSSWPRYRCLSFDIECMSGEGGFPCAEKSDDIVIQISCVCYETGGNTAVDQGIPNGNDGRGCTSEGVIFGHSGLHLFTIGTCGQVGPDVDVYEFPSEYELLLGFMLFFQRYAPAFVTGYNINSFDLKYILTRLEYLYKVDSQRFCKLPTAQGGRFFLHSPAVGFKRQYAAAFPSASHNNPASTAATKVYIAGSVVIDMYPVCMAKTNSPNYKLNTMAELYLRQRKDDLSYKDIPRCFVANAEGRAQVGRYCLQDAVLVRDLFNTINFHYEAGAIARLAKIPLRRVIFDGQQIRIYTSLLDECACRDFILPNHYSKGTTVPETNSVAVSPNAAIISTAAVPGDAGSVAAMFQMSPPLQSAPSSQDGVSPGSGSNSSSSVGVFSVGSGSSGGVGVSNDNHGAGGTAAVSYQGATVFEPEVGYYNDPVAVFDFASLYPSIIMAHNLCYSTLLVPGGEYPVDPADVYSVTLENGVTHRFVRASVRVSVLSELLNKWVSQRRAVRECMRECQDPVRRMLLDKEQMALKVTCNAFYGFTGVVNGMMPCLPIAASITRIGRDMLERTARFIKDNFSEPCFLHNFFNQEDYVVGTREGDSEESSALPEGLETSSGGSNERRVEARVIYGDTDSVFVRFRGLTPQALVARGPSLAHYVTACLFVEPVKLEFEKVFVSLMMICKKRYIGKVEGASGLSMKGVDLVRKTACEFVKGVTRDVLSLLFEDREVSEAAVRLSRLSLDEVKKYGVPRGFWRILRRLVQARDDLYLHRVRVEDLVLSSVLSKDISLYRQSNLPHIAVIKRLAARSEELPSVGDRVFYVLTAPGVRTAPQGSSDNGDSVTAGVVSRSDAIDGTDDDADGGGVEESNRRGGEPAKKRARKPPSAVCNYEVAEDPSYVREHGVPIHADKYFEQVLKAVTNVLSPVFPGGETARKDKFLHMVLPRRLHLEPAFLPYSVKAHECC

inhibition at 25 µM [%] | Compound
24.4 | O=C(Nc1nnc(NC2CCCCCC2)s1)c1ccc(Cl)c(Cl)c1 [compound 418, 3,4-dichloro-N-[5-(cycloheptylamino)-1,3,4-thiadiazol-2-yl]benzamide]
24.3 | O=C(Nc1nnc(NCCCN2CCCC2=O)s1)c1ccc(Br)cc1 [compound 419, 4-bromo-N-(5-{[3-(2-oxo-1-pyrrolidinyl)propyl]amino}-1,3,4-thiadiazol-2-yl)benzamide]
24.1 | CC(C)(C)OC(=O)CCNc1nnc(NC(=O)c2ccc(Cl)c(Cl)c2)s1 [compound 420, tert-butyl 3-({5-[(3,4-dichlorobenzoyl)amino]-1,3,4-thiadiazol-2-yl}amino)propanoate]
24 | O=C(/C=C/c1ccccc1)Nc1nnc(NCc2cccnc2)s1 [compound 421, (E)-3-phenyl-N-{5-[(3-pyridinylmethyl)amino]-1,3,4-thiadiazol-2-yl}-2-propenamide]
24 | CN1CCN(CCCNc2nnc(NC(=O)/C=C/c3ccccc3Cl)s2)CC1 [compound 422, (E)-3-(2-chlorophenyl)-N-(5-{[3-(4-methylpiperazino)propyl]amino}-1,3,4-thiadiazol-2-yl)-2-propenamide]
23.8 | O=C(Nc1nnc(NCc2ccc(F)cc2)s1)c1ccc(F)cc1F [compound 423, 2,4-difluoro-N-{5-[(4-fluorobenzyl)amino]-1,3,4-thiadiazol-2-yl}benzamide]
23.6 | CC(C)c1cc(C(C)C)c(C(=O)Nc2nnc(NCc3cccs3)s2)c(C(C)C)c1 [compound 424, 2,4,6-triisopropyl-N-{5-[(2-thienylmethyl)amino]-1,3,4-thiadiazol-2-yl}benzamide]
23.5 | O=C(Nc1nnc(NCc2cccs2)s1)c1ccc(I)cc1 [compound 425, 4-iodo-N-{5-[(2-thienylmethyl)amino]-1,3,4-thiadiazol-2-yl}benzamide]
23.5 | CC(C)(C)OC(=O)CCNc1nnc(NC(=O)/C=C/c2ccccc2Cl)s1 [compound 426, tert-butyl 3-[(5-{[(E)-3-(2-chlorophenyl)-2-propenoyl]amino}-1,3,4-thiadiazol-2-yl)amino]propanoate]
23.4 | O=C(Nc1nnc(NCCCN2CCCC2=O)s1)c1ccc(F)cc1F [compound 427, 2,4-difluoro-N-(5-{[3-(2-oxo-1-pyrrolidinyl)propyl]amino}-1,3,4-thiadiazol-2-yl)benzamide]
23.3 | COc1ccccc1C(=O)Nc1nnc(NC2CCCc3ccccc32)s1 (centres unmarked) [compound 428, 2-methoxy-N-[5-(1,2,3,4-tetrahydro-1-naphthalenylamino)-1,3,4-thiadiazol-2-yl]benzamide]
23.2 | COc1ccccc1C(=O)Nc1nnc(NCCCCc2ccccc2)s1 [compound 429, 2-methoxy-N-{5-[(4-phenylbutyl)amino]-1,3,4-thiadiazol-2-yl}benzamide]
23.1 | O=C(Nc1nnc(NCCc2cccs2)s1)c1ccc(I)cc1 [compound 430, 4-iodo-N-(5-{[2-(2-thienyl)ethyl]amino}-1,3,4-thiadiazol-2-yl)benzamide]
23.1 | CCOc1ccc2ccccc2c1C(=O)Nc1nnc(NCC2CCCCC2)s1 [compound 431, N-{5-[(cyclohexylmethyl)amino]-1,3,4-thiadiazol-2-yl}-2-ethoxy-1-naphthamide]
23 | O=C(/C=C/c1ccccc1)Nc1nnc(NCCN2CCCC2)s1 [compound 432, (E)-3-phenyl-N-(5-{[2-(1-pyrrolidinyl)ethyl]amino}-1,3,4-thiadiazol-2-yl)-2-propenamide]
22.9 | O=C(Nc1nnc(NCC2CCCCC2)s1)c1ccc(F)cc1F [compound 433, N-{5-[(cyclohexylmethyl)amino]-1,3,4-thiadiazol-2-yl}-2,4-difluorobenzamide]
22.8 | O=C(Nc1nnc(NCCNc2ccccc2)s1)c1ccc(Br)cc1 [compound 434, N-{5-[(2-anilioethyl)amino]-1,3,4-thiadiazol-2-yl}-4-bromobenzamide]
22.8 | CC(C)c1cc(C(C)C)c(C(=O)Nc2nnc(NCCC#N)s2)c(C(C)C)c1 [compound 435, N-{5-[(2-cyanoethyl)amino]-1,3,4-thiadiazol-2-yl}-2,4,6-triisopropylbenzamide]
22.8 | COc1ccc(CNc2nnc(NC(=O)c3cccc([N+](=O)[O-])c3)s2)cc1OC [compound 436, N-{5-[(3,4-dimethoxybenzyl)amino]-1,3,4-thiadiazol-2-yl}-3-nitrobenzamide]
22.7 | O=C(Nc1nnc(NCCc2ccccc2)s1)c1cc(F)cc(F)c1 [compound 437, 3,5-difluoro-N-[5-(phenethylamino)-1,3,4-thiadiazol-2-yl]benzamide]
22.6 | O=C(Nc1nnc(NCCNc2ccccc2)s1)c1c(Cl)cccc1Cl [compound 438, N-{5-[(2-anilinoethyl)amino]-1,3,4-thiadiazol-2-yl}-2,6-dichlorobenzamide]

inhibition at 25 µM [%] | Compound
22.5 | O=C(/C=C/c1ccccc1Cl)Nc1nnc(NCC2CCCCC2)s1 [compound 439, (E)-3-(2-chlorophenyl)-N-{5-[(cyclohexylmethyl)amino]-1,3,4-thiadiazol-2-yl}-2-propenamide]
22.5 | CC(C)c1cc(C(C)C)c(C(=O)Nc2nnc(NC[C@@H]3CCC4CC3C4(C)C)s2)c(C(C)C)c1 (stereo partly drawn) [compound 440, N-[5-({[(2R)-6,6-dimethylbicyclo[3.1.1]hept-2-yl]methyl}amino)-1,3,4-thiadiazol-2-yl]-2,4,6-triisopropylbenzamide]
22.5 | CCCCCCCCCCCNc1nnc(NC(=O)c2c(C(C)C)cc(C(C)C)cc2C(C)C)s1 [compound 441, 2,4,6-triisopropyl-N-[5-(undecylamino)-1,3,4-thiadiazol-2-yl]benzamide]
22.3 | CC(C)c1cc(C(C)C)c(C(=O)Nc2nnc(NCc3ccco3)s2)c(C(C)C)c1 [compound 442, N-{5-[(2-furylmethyl)amino]-1,3,4-thiadiazol-2-yl}-2,4,6-triisopropylbenzamide]
22.1 | O=C(/C=C/c1ccccc1Cl)Nc1nnc(NCc2cccc3ccccc23)s1 [compound 443, (E)-3-(2-chlorophenyl)-N-{5-[(1-naphthylmethyl)amino]-1,3,4-thiadiazol-2-yl]-2propenamide]
21.9 | CC(C)c1cc(C(C)C)c(C(=O)Nc2nnc(NCCN(C)C)s2)c(C(C)C)c1 [compound 444, N-(5-{[2-(dimethylamino)ethyl]amino}-1,3,4-thiadiazol-2-yl)-2,4,6-triisopropylbenzamide]
21.9 | O=C(Nc1nnc(NCCc2cccs2)s1)c1ccc(F)cc1F [compound 445]
21.8 | NS(=O)(=O)c1ccc(CCNc2nnc(NC(=O)c3ccc(C(F)(F)F)cc3)s2)cc1 [compound 446, N-(5-{[4-(aminosulfonyl)phenethyl]amino}-1,3,4-thiadiazol-2-yl)-4-(trifluoromethyl)benzamide]
21.6 | CCSCCNc1nnc(NC(=O)c2ccc(Cl)c(Cl)c2)s1 [compound 447, 3,4-dichloro-N-(5-{[2-(ethylsulfanyl)ethyl]amino]-1,3,4-thiadiazol-2-yl)benzamide]
21.6 | O=C(Nc1nnc(NCCc2c[nH]cn2)s1)c1c(Cl)cccc1Cl [compound 448, 2,6-dichloro-N-(5-{[2-(1H-imidazol-4-yl)ethyl]amino}-1,3,4-thiadiazol-2-yl)benzamide]
21.5 | Cc1ccc(C(=O)Nc2nnc(NCC3CCCCC3)s2)cc1 [compound 449, N-{5-[(cyclohexylmethyl)amino]-1,3,4-thiadiazol-2-yl}-4-methylbenzamide]
21.4 | CCOc1ccc2ccccc2c1C(=O)Nc1nnc(NCC2CCCO2)s1 (centres unmarked) [compound 450, 2-ethoxy-N-{5-[(tetrahydro-2-furanylmethyl)amino]-1,3,4-thiadiazol-2-yl}-1-naphthamide]
21.4 | O=C(Nc1nnc(NCc2ccc(F)cc2)s1)c1cc(F)cc(F)c1 [compound 451, 3,5-difluoro-N-{5-[(4-fluorobenzyl)amino]-1,3,4-thiadiazol-2-yl}benzamide]
21.3 | COc1ccccc1C(=O)Nc1nnc(NCc2ccc(Cl)c(Cl)c2)s1 [compound 452, N-{5-[(3,4-dichlorobenzyl)amino]-1,3,4-thiadiazol-2-yl}-2-methoxybenzamide]
21.2 | O=C(Nc1nnc(NCCN2CCOCC2)s1)c1cc2ccccc2s1 [compound 453, N-{5-[(2-morpholinoethyl)amino]-1,3,4-thiadiazol-2-yl}-1-benzothiophene-2-carboxamide]
21.2 | O=C(Nc1nnc(NCCc2c[nH]cn2)s1)c1ccc(I)cc1 [compound 454, N-(5-{[2-(1H-imidazol-4-yl)ethyl]amino}-1,3,4-thiadiazol-2-yl)-4-iodobenzamide]
20.8 | O=C(Nc1nnc(NC2CCN(Cc3ccccc3)CC2)s1)c1ccc(Br)cc1 [compound 455, N-{5-[(1-benzyl-4-piperidinyl)amino]-1,3,4-thiadiazol-2-yl}-4-bromobenzamide]
20.8 | O=C(Nc1nnc(NC2CCN(Cc3ccccc3)CC2)s1)c1ccc([N+](=O)[O-])o1 [compound 456, N-{5-[(1-benzyl-4-piperidinyl)amino]-1,3,4-thiadiazol-2-yl}-5-nitro-2-furamide]
20.7 | Cc1ccc(C(=O)Nc2nnc(NCc3cccc4ccccc34)s2)cc1 [compound 457, 4-methyl-N-{5-[(1-naphthylmethyl)amino]-1,3,4-thiadiazol-2-yl}benzamide]
20.7 | O=C(Nc1nnc(NCCc2c[nH]c3ccccc23)s1)c1cc(F)cc(F)c1 [compound 458, 3,5-difluoro-N-(5-{[2-(1H-indol-3-yl)ethyl]amino}-1,3,4-thiadiazol-2-yl)benzamide]
